Experimental findings from the supplement of paper PMC5579334 are described below.

The subject of experiment [1] is HS-PSS. In words: drug sensitivity score (DSS, CellTiter-Glo viability, 72 h) (DSS (dimensionless)); higher = more sensitive; extreme values may be limits of the assay. In a few lines:
(§1)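 MPNST cell lines and primary human Schwann cells (750–1000 cells per well) went into 384-well plates preprinted with each compound at five concentrations in 10-fold steps. Plates were incubated 72 h at 37 °C, 5% CO2. Viability was read as CellTiter-Glo ATP luminescence, scaled between vehicle and positive-control wells, with duplicates averaged where present. Percent inhibition is at the top concentration; drug sensitivity score and relative IC50 (censored at top concentration) come from four-parameter logistic fits.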
For orientation: Cellular ATP, detected with luciferase, serves as a proxy for viable cell number.

Experiment [2] concerns HS-Sch-2. The experiment is described as above. In a few lines:
as §1

In experiment [3] the test system is YST-1. The description is as above. The method in brief:
as §1

Experiment [4] has as its system HS-PSS. Nature of the experiment: % inhibition of CellTiter-Glo viability at highest tested concentration (72 h), relative to DMSO and benzethonium chloride controls; higher = more inhibition. In a few lines:
as §1

Experiment [5] relates to HS-Sch-2. The description is as above. In a few lines:
as §1

Experiment [6] deals with YST-1. The experiment is described as above. In a few lines:
as §1

The test system of experiment [7] is HS-PSS. Nature of the experiment: drug sensitivity score (DSS, CellTox-Green cytotoxicity, 72 h) (DSS (dimensionless)); higher = more cytotoxic; extreme values may be limits of the assay. In a few lines: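 MPNST cell lines and primary human Schwann cells were incubated 72 h at 37 °C in 384-well plates holding five 10-fold compound dilutions. CellTox-Green was added before seeding at a final 1:1000 dilution and reported fluorescence from DNA released by disrupted cells. Signals were scaled to vehicle and positive-control wells, and cultures failing plate quality control were dropped. Drug sensitivity score and relative IC50 come from four-parameter logistic fits, with IC50 censored at the top concentration.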

Usually % inhibition stands for the change of the read-out against control, counted positive when it falls. `CNC(=O)[C@@H](NC(=O)[C@H](CC(C)C)[C@H](O)C(=O)NO)C(C)(C)C` [Marimastat] (max concentration tested 10000 nM): the drug sensitivity score is 0 in experiment [1], 0.33 in experiment [2], 0 in experiment [3] and 0 in experiment [7]. Moreover, the “% inhibition” value was -7.14% in experiment [4], 17.1% in experiment [5] and 7.56% in experiment [6].

For the compound `Cc1c(C(=O)Nc2ccc(N3C[C@@H](C)O[C@@H](C)C3)nc2)cccc1-c1ccc(OC(F)(F)F)cc1` [Sonidegib] (max concentration tested 10000 nM), the drug sensitivity score in experiment [1] was 3.23; in experiment [2] it was 1.21; in experiment [3], 0; in experiment [7] it was 0. Besides, the “% inhibition” value in experiment [4] came to 30.6%; in experiment [5], 22.7%; in experiment [6], 8.09%.

As for `CO[C@H]1C(=O)[C@]2(C)[C@@H](OC)C[C@H]3OC[C@@]3(OC(C)=O)[C@H]2[C@H](OC(=O)c2ccccc2)[C@]2(O)C[C@H](OC(=O)[C@H](O)[C@@H](NC(=O)OC(C)(C)C)c3ccccc3)C(C)=C1C2(C)C` [Cabazitaxel] (max concentration tested 1000 nM), the drug sensitivity score amounted to 1.5 in experiment [1], 33.6 in experiment [2], 30.7 in experiment [3] and 0.1 in experiment [7]. The “% inhibition” value in experiment [4] is 41.5%; in experiment [5] it was 93.5%; in experiment [6], 74%.

As for `O=C(O)C(=O)O.[NH-][C@@H]1CCCC[C@H]1[NH-].[Pt+2]` [Oxaliplatin] (max concentration tested 100000 nM), the drug sensitivity score in experiment [1] is 8.54; in experiment [2], 11.4; in experiment [3], 19.6; in experiment [7], 3.02. In addition, the “% inhibition” value in experiment [4] was found to be 69.2%; in experiment [5], 100%; in experiment [6], 97.7%.

`O=c1[nH]c(C2CCCN2)nc2c1oc1ccc(Cl)cc12` (stereo not given) (max concentration tested 10000 nM): the drug sensitivity score is 2.86 in experiment [1], 2.7 in experiment [2], 6.83 in experiment [3] and 0 in experiment [7]. Besides, the “% inhibition” value was 33.3% in experiment [4], 19.3% in experiment [5] and 63.8% in experiment [6].

On to `CCc1nc(-c2cccc(C)c2)c(-c2ccnc(NC(=O)c3ccccc3)c2)s1` [TAK-715] (max concentration tested 10000 nM), for which the drug sensitivity score in experiment [1] was determined as 0.81; in experiment [2], 2.55; in experiment [3] it was 2.91; in experiment [7], 0. The entries for the “% inhibition” value in experiment [4], in experiment [5] and in experiment [6] were 19.3%, 27.9% and 24%, respectively.

As to `COc1cc(N2CCN(C)CC2)ccc1Nc1nccc(-c2cn(C)c3cnccc23)n1` [AZ191] (max concentration tested 10000 nM), the drug sensitivity score in experiment [1] was 5.3; in experiment [2], 5.07; in experiment [3], 3.96; in experiment [7] it was 1.42. The figures for the “% inhibition” value in experiment [4], in experiment [5] and in experiment [6] were 80.5%, 95.6% and 76.4%, respectively.

Turning to `C=CC(=O)Nc1cccc(Nc2nc(Nc3ccc(N4CCN(C(C)=O)CC4)cc3OC)ncc2C(F)(F)F)c1` [Rociletinib] (max concentration tested 10000 nM), the drug sensitivity score amounted to 4.91 in experiment [1], 4.99 in experiment [2], 8.73 in experiment [3] and 3.25 in experiment [7]. In addition, the “% inhibition” value in experiment [4] was 86.4%; in experiment [5], 80.9%; in experiment [6], 95.2%.

`CCc1cc(Nc2nccc(-c3c(-c4ccc(OC)c(C(=O)Nc5c(F)cccc5F)c4)nc4ccccn34)n2)c(OC)cc1N1CCC(N2CCN(S(C)(=O)=O)CC2)CC1` (max concentration tested 10000 nM): the drug sensitivity score in experiment [1] turned out to be 0; in experiment [2], 0.89; in experiment [3], 16.1; in experiment [7] it was 0. For the same compound, the “% inhibition” value was determined as 4.32% in experiment [4], 7.21% in experiment [5] and 52.3% in experiment [6].

On to `Cc1ncc(-c2ccnc(Nc3ccc(S(C)(=O)=O)cc3)n2)n1C(C)C` [AZD-5438] (max concentration tested 10000 nM), for which the drug sensitivity score in experiment [1] amounted to 12.4; in experiment [2], 8.28; in experiment [3], 9.62; in experiment [7], 0.3. Moreover, the “% inhibition” value in experiment [4] worked out at 72%; in experiment [5] it was 100%; in experiment [6], 99.2%.

For `Cc1cc(-c2ncc(-c3cccnc3)cc2/C=C/c2ccccc2)cnc1-c1cccnc1` [Pyridoclax] (max concentration tested 25000 nM), the drug sensitivity score in experiment [1] was found to be 0.36; in experiment [2], 1.52; in experiment [3] it was 16.5; in experiment [7], 0. The “% inhibition” value in experiment [4] was 9.44%; in experiment [5], 19.9%; in experiment [6], 62.7%.

For `Cc1ccccc1C(C(=O)NC1CCCCC1)N(C(=O)Cn1ccnc1C)c1cccc(F)c1` (stereo not given) [AGI-5198] (max concentration tested 10000 nM), the drug sensitivity score in experiment [1] stood at 0.2; in experiment [2] it was 0.6; in experiment [3] it was 0; in experiment [7] it was 0. For the same compound, the “% inhibition” value in experiment [4] came out at 11.5%; in experiment [5], 4.74%; in experiment [6], 1.43%.

Turning to `CNC(=O)c1nn(C)c2c1C(C)(C)Cc1cnc(Nc3ccc(N4CCN(C)CC4)cc3)nc1-2` [Milciclib] (max concentration tested 10000 nM), the drug sensitivity score in experiment [1] stood at 9.77; in experiment [2], 9.72; in experiment [3], 16.6; in experiment [7], 0.17. Also, the “% inhibition” value in experiment [4] amounted to 79.3%; in experiment [5], 96%; in experiment [6], 101%.

Turning to `O=C1NC(=O)/C(=C/c2ccc3nccc(-c4ccncc4)c3c2)S1` (max concentration tested 10000 nM), the drug sensitivity score is 2.69 in experiment [1], 1.71 in experiment [2], 9.37 in experiment [3] and 0 in experiment [7]. The results for the “% inhibition” value in experiment [4], in experiment [5] and in experiment [6] were 49.6%, 37.8% and 86.6%, respectively.

Turning to `CN(c1ncccc1CNc1nc(Nc2ccc3c(c2)CC(=O)N3)ncc1C(F)(F)F)S(C)(=O)=O` (max concentration tested 10000 nM), the drug sensitivity score in experiment [1] was 3.86; in experiment [2], 5.18; in experiment [3], 7.85; in experiment [7], 0.03. Besides, the “% inhibition” value in experiment [4] worked out at 73.3%; in experiment [5], 99.2%; in experiment [6], 98.6%.
